Data published in the supplement of paper PMC10307832.

How the values were obtained:
Experiment in all cases: relative viability (nuclei count vs DMSO), 5 days (fraction); higher = more cells survive
[1] = compound: CN(c1ncccc1CNc1nc(Nc2ccc3c(c2)CC(=O)N3)ncc1C(F)(F)F)S(C)(=O)=O + CC(=O)c1c(C)c2cnc(Nc3ccc(N4CCNCC4)cn3)nc2n(C2CCCC2)c1=O [Palbociclib] (partner 0.5 µM)
Outline: (§1)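 Lung cancer cell lines, seeded in 1536-well plates, were treated the following day by pin tool with a single drug or with five library-drug doses (not always all listed) in √10 steps on top of a fixed anchor-drug dose. Cells were fixed and nuclei stained in one step after 5 days, and nuclei were counted. Relative viability is the nuclei count for treated wells divided by that for vehicle wells, reported as medians of duplicate plates.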

[2] = compound: CN(c1ncccc1CNc1nc(Nc2ccc3c(c2)CC(=O)N3)ncc1C(F)(F)F)S(C)(=O)=O + Cc1nc(NC(=O)N2CCC[C@H]2C(N)=O)sc1-c1ccnc(C(C)(C)C(F)(F)F)c1 [Alpelisib] (partner 2 µM)
Outline: as §1

[3] = compound: CN(c1ncccc1CNc1nc(Nc2ccc3c(c2)CC(=O)N3)ncc1C(F)(F)F)S(C)(=O)=O + Nc1nc2[nH]cc(CCc3ccc(C(=O)N[C@@H](CCC(=O)O)C(=O)O)cc3)c2c(=O)[nH]1 [Pemetrexed] (partner 0.2 µM)
Outline: as §1

[4] = compound: CN(c1ncccc1CNc1nc(Nc2ccc3c(c2)CC(=O)N3)ncc1C(F)(F)F)S(C)(=O)=O + O=C(c1cc(Cc2n[nH]c(=O)c3ccccc23)ccc1F)N1CCN(C(=O)C2CC2)CC1 [Olaparib] (partner 8 µM)
Outline: as §1

Row | Cell Line | relative viability ([1]; first compound 0.01 µM) | relative viability ([1]; first compound 0.03162 µM) | relative viability ([1]; first compound 0.1 µM) | relative viability ([1]; first compound 0.3162 µM) | relative viability ([1]; first compound 1 µM) | relative viability ([2]; first compound 0.01 µM) | relative viability ([2]; first compound 0.03162 µM) | relative viability ([2]; first compound 0.1 µM) | relative viability ([2]; first compound 0.3162 µM) | relative viability ([2]; first compound 1 µM) | relative viability ([3]; first compound 0.01 µM) | relative viability ([3]; first compound 0.03162 µM) | relative viability ([3]; first compound 0.1 µM) | relative viability ([3]; first compound 0.3162 µM) | relative viability ([3]; first compound 1 µM) | relative viability ([4]; first compound 0.01 µM) | relative viability ([4]; first compound 0.03162 µM) | relative viability ([4]; first compound 0.1 µM) | relative viability ([4]; first compound 0.3162 µM) | relative viability ([4]; first compound 1 µM)
1 | NCI-H2405 | 0.51 | 0.518 | 0.504 | 0.466 | 0.391 | 0.837 | 0.757 | 0.719 | 0.72 | 0.727 | 1.06 | 1.01 | 0.984 | 0.924 | 0.832 | 0.879 | 0.922 | 0.78 | 0.702 | 0.641
2 | NCI-H3122 | 0.204 | 0.188 | 0.155 | 0.202 | 0.149 | 0.748 | 0.982 | 0.684 | 0.822 | 0.728 | 0.202 | 0.194 | 0.175 | 0.181 | 0.193 | 0.658 | 0.65 | 0.604 | 0.568 | 0.574
3 | PC-3 [JPC-3] | 0.606 | – | 0.529 | 0.453 | 0.455 | 0.993 | 1.14 | 0.941 | 1.02 | 0.952 | 1.02 | – | 1.13 | 1.07 | 1.18 | 1.13 | – | 1.05 | 1.08 | 1.04
4 | PC-14 | 0.543 | 0.635 | 0.526 | 0.515 | 0.364 | 1.02 | 1.07 | 0.982 | 0.951 | 0.869 | 0.162 | 0.135 | 0.134 | 0.128 | 0.134 | 0.38 | 0.282 | 0.271 | 0.261 | 0.243
5 | RERF-LC-KJ | 1.17 | 1.15 | 1.09 | 1.03 | 1.02 | 0.838 | 0.955 | 0.813 | 0.765 | 0.825 | 0.428 | 0.355 | 0.496 | 0.515 | 0.575 | 0.983 | 0.945 | 0.97 | 0.849 | 0.927
